Measurements published in patent publication US8501781B2 (priority 2009, dated 2013).
Marks after values point to notes of the source that are not given here.

Assay: logP by HPLC (EEC Directive 79/831 Annex V.A8)
Type: physicochemical
Conditions: for chromatographic logP: pH 2.7, given in the preparation examples, read-out: log P (pH 2.7)
[1] = [b] LC-MS, acidic range, pH 2.7, 0.1% aqueous formic acid and acetonitrile
[2] = [c] LC-MS, neutral range, pH 7.8, 0.001 molar aqueous ammonium bicarbonate and acetonitrile

Structure (SMILES)	logP [1]	logP [2]	chromatographic logP
Cc1cc(CC(=O)N2CCC(c3nc(C(=O)OC4CCCCC4)cs3)CC2)n(C)n1 [Example 86]	2.6	2.67	–
O=C(OCc1ccccc1Br)c1csc(C2CCN(C(=O)Cc3cc(Br)ccc3Br)CC2)n1 [Example 101]	4.68	4.64	–
Cc1ccc(CC(=O)N2CCC(c3nc(C(=O)OC4CCCCC4)cs3)CC2)c(C)c1 [Example 66]	4.3	4.33	–
CCCCC(=O)N1CCC(c2nc(C(=O)Oc3cccc4ccccc34)cs2)CC1 [Example 3]	3.66^[b]	–	–
COc1ccc(Cl)cc1NC(=O)N1CCC(c2nc(C(=O)OC3CCCc4ccccc43)cs2)CC1 (centres unmarked) [Example 97]	4.64^[b]	–	–
Cc1cc(CC(=O)N2CCC(c3nc(C(=O)Oc4cccc5ccccc45)cs3)CC2)c(C)s1 [Example 25]	4.12^[b]	–	–
Cc1ccc(Cl)cc1NC(=O)N1CCC(c2nc(C(=O)OCc3ccccc3Br)cs2)CC1 [Example 85]	4.04	4.06	–
Cc1ccc(C)c(NC(=O)N2CCC(F)(c3nc(C(=O)OCc4c(F)cccc4F)cs3)CC2)c1 [Example 171]	3.69	3.71	–
COc1cccc(Br)c1OC(=O)c1csc(C2CCN(C(=O)Nc3cc(C)ccc3C)CC2)n1 [Example 142]	3.56^[b]	–	–
O=C(OCc1ccccc1Br)c1csc(C2CCN(C(=S)Nc3cc(Cl)ccc3Cl)CC2)n1 [Example 113]	4.4	4.39	–
COc1ccc(OC)c(NC(=O)N2CCC(c3nc(C(=O)OC4CCCc5ccccc54)cs3)CC2)c1 (centres unmarked) [Example 77]	4.05^[b]	–	–
O=C(OC1CCCCC1)c1csc(C2CCN(C(=O)Cc3cc(Cl)ccc3Cl)CC2)n1 [Example 14]	4.49^[b]	–	–
Cc1ccc(C)c(NC(=O)N2CCC(c3nc(C(=O)Oc4c(F)cccc4Br)cs3)CC2)c1 [Example 152]	3.86^[b]	–	–
COc1ccc(Cl)cc1NC(=O)N1CCC(c2nc(C(=O)OC3CCCCC3)cs2)CC1 [Example 75]	4.35^[b]	–	–
O=C(OCc1ccccc1Br)c1csc(C2CCN(C(=O)Nc3cc(F)ccc3F)CC2)n1 [Example 84]	3.79^[c]; 3.79^[b]	3.79^[c]; 3.79^[b]	–
O=C(OC1CCCCC1)c1csc(C2CCN(C(=O)Cc3cccc(C(F)(F)F)c3)CC2)n1 [Example 2]	4.21^[b]	–	–
CCCCCCC(=O)N1CCC(c2nc(C(=O)OC3CCCCC3)cs2)CC1 [Example 58]	4.51^[b]	–	–
Cc1ccc(C)c(NC(=O)N2CCC(c3nc(C(=O)OC4CCCc5ccccc54)cs3)CC2)c1 (centres unmarked) [Example 78]	4.09^[b]	–	–
Cc1cc(C(F)(F)F)nn1CC(=O)N1CCN(c2nc(C(=O)OCc3c(F)cccc3F)cs2)CC1 [Example 51]	3.28	3.33	–
Cc1cc(C(F)(F)F)nn1CC(=O)N1CCC(F)(c2nc(C(=O)OC3CCCCC3)cs2)CC1 [Example 170]	4.07	4.09	–
O=C(Oc1cccc2ccccc12)c1csc(C2CCN(C(=O)Cc3ccsc3)CC2)n1 [Example 7]	3.46^[b]	–	–
Cc1sc(-c2ccccc2)nc1CC(=O)N1CCC(c2nc(C(=O)Oc3cccc4ccccc34)cs2)CC1 [Example 23]	4.43^[b]	–	–
Cc1nc(CC(=O)N2CCC(c3nc(C(=O)OC4CCCCC4)cs3)CC2)c(C)s1 [Example 27]	3.02^[b]	–	–
CC(C)(C)OC(=O)N1CCC(c2nc(C(=O)OC3CCCCC3)cs2)CC1 [XXXIII-1, tert-Butyl 4-{4-[(cyclohexyloxy)carbonyl]-1,3-thiazol-2-yl}piperidine-1-carboxylate]	–	–	4.62

Structure (SMILES)	logP [1]	logP [2]	chromatographic logP
Cc1cc(C(F)(F)F)nn1CC(=O)N1CCN(c2nc(C(=O)Oc3ccc(Cl)cc3Cl)cs2)CC1 [Example 37]	3.96	3.87	–
COc1ccc(C)cc1NC(=O)N1CCC(c2nc(C(=O)OC3CCCCC3)cs2)CC1 [Example 71]	4.18^[b]	–	–
Cc1noc(C)c1NC(=O)N1CCC(c2nc(C(=O)OC3CCCCC3)cs2)CC1 [Example 76]	2.66^[b]	–	–
Cc1nc(C)n(CC(=O)N2CCC(c3nc(C(=O)OC4CCCCC4)cs3)CC2)n1 [Example 29]	2.08^[b]	–	–
Cc1ccc(C)c(NC(=S)N2CCC(c3nc(C(=O)OC4CCCCC4)cs3)CC2)c1 [Example 63]	4.17^[b]	–	–
Cc1ccc(Cl)c(NC(=O)N2CCC(c3nc(C(=O)OC4CCCc5ccccc54)cs3)CC2)c1 (centres unmarked) [Example 100]	4.61^[b]	–	–
Cc1ccc(Cl)cc1NC(=S)N1CCC(c2nc(C(=O)OCc3ccccc3Br)cs2)CC1 [Example 112]	4.3	4.27	–
Cc1ccc([N+](=O)[O-])cc1NC(=O)N1CCC(c2nc(C(=O)OC3CCCCC3)cs2)CC1 [Example 94]	3.62^[b]	–	–
Cc1ccc(F)c(NC(=O)N2CCC(c3nc(C(=O)OC4CCCc5ccccc54)cs3)CC2)c1 (centres unmarked) [Example 80]	4.08^[b]	–	–
COc1ccc(C)cc1NC(=O)N1CCC(c2nc(C(=O)OCc3c(F)cccc3Cl)cs2)CC1 [Example 162]	3.92^[b]	–	–
O=C(OC1CCCCC1)c1csc(C2CCN(S(=O)(=O)Cc3cc(F)ccc3F)CC2)n1 [Example 30, Cyclohexyl 2-{1-[(2,5-difluorobenzyl)sulphonyl]piperidin-4-yl}-1,3-thiazole-4-carboxylate]	–	–	4.05
Cc1nc(CC(=O)N2CCC(c3nc(C(=O)Oc4cccc5ccccc45)cs3)CC2)c(C)s1 [Example 26]	3.10^[b]	–	–
Cc1ccc(C)c(NC(=S)N2CCC(c3nc(C(=O)OC4CCCc5ccccc54)cs3)CC2)c1 (centres unmarked) [Example 81]	4.39^[b]	–	–
O=C(OCc1ccccc1Br)c1csc(C2CCN(C(=S)Nc3cc(F)ccc3F)CC2)n1 [Example 116]	3.83	3.87	–
O=C(OC1CCCCC1)c1csc(C2(F)CCN(C(=O)Cn3nc(C(F)F)cc3C(F)F)CC2)n1 [Example 69]	3.91^[b]	–	–
Cc1ccc(C)c(NC(=O)N2CCC(c3nc(C(=O)OCc4ccccc4F)cs3)CC2)c1 [Example 140]	3.39^[b]	–	–
Cc1ccc(C)c(NC(=O)N2CCC(c3nc(C(=O)Oc4ccccc4Br)cs3)CC2)c1 [Example 146]	3.58^[b]	–	–
O=C(OCc1ccccc1Br)c1csc(C2CCN(C(=O)Nc3cc(C(F)(F)F)ccc3Cl)CC2)n1 [Example 106]	4.7	4.75	–
Cc1ccc(C)c(NC(=S)N2CCC(c3nc(C(=O)OCc4ccccc4Br)cs3)CC2)c1 [Example 88]	3.68	3.71	–
COc1cccc(F)c1OC(=O)c1csc(C2CCN(C(=O)Nc3cc(C)ccc3C)CC2)n1 [Example 145]	3.28^[b]	–	–
O=C(OCc1ccccc1Br)c1csc(C2CCN(C(=O)Nc3cc(Cl)ccc3Cl)CC2)n1 [Example 108]	4.56	4.61	–
Cc1ccc(C)c(NC(=O)N2CCC(c3nc(C(=O)OC4CCCCC4)cs3)CC2)c1 [Example 59, Cyclohexyl 2-{1-[(2,5-dimethylphenyl)carbamoyl]piperidin-4-yl}-1,3-thiazole-4-carboxylate]	–	–	3.82
Cc1ccc(F)c(NC(=O)N2CCC(c3nc(C(=O)OCc4ccccc4Br)cs3)CC2)c1 [Example 92]	3.85	3.83	–
Cc1cc(C(F)(F)F)nn1CC(=O)N1CCN(c2nc(C(=O)Sc3ccc4ccccc4c3)cs2)CC1 [Example 45]	4.33^[c]; 4.33^[b]	4.33^[c]; 4.33^[b]	–
